Reference: EP1561465A2, “Methods of use of fluoroquinolone compounds against bacteria” (LG Life Sciences, Ltd., priority 1999, dated 2001)
≈ marks a conversion by molar mass, not a printed value.

What was measured:
Assay type in all cases: cell-based
[1] = system: anaerobic cocci and Gram positive pathogens; experiment: organism not typed; settings: read-out: MIC90s
E. coli = experiment: Urinary bactericidal titers (UBT) and AUBTC of volunteers' urine; settings: for AUBTC (range): urine after gemifloxacin 320 mg or ofloxacin 400 mg; for time for which median UBTs exceed 0: reference strain E. coli ATCC 25922, 320 mg gemifloxacin / 400 mg ofloxacin
K. pneumoniae = experiment: as above; settings: K. pneumoniae (16) Laboratory No. 595; urine after gemifloxacin 320 mg or ofloxacin 400 mg
P. mirabilis = experiment: as above; settings: P. mirabilis (16) Laboratory No. 414; urine after gemifloxacin 320 mg or ofloxacin 400 mg
[2] = system: enteropathogenic bacterial strains; experiment: MIC by agar dilution (NCCLS M7-A4), enteropathogenic isolates pooled; settings: all enteropathogenic isolates except C. jejuni
[3] = E. coli (16) Laboratory No. 523

Row | Compound | MIC [1] | AUBTC (range) (E. coli; E. coli (16) ATCC 25922) | AUBTC (range) (E. coli; [3]) | time for which median UBTs exceed 0 (E. coli) | AUBTC (range) (K. pneumoniae) | AUBTC (range) (P. mirabilis) | concentration inhibiting 100% of isolates [2]
1 | CO/N=C1\CN(c2nc3c(cc2F)c(=O)c(C(=O)O)cn3C2CC2)CC1CN (racemic) [Gemifloxacin, (R,S)-7-(3-aminomethyl-4-methoxyiminopyrrolidin-1-yl)-1-cyclopropyl-6-fluoro-4-oxo-1,4-dihydro-1,8-naphthyridine-3-carboxylic acid] | 0.125 to 2 µg/mL (≈ 0.321 to 5.14 µM) | 546 (174-816) | 237(48-384) | 5 days | 321 (72-564) | 261 (120-510) | 0.25 mg/L
2 | CC1COc2c(N3CCN(C)CC3)c(F)cc3c(=O)c(C(=O)O)cn1c23 (stereo not drawn) [Ofloxacin, ofloxacin] | – | 537 (258-888) | 276 (90-516) | 4 days | 414 (180-636) | 438 (276-654) | –
